Reference: publication PMC5372560, “D-Amino Acid Position Influences the Anticancer Activity of Galaxamide Analogs: An Apoptotic Mechanism Study” (International Journal of Molecular Sciences, 2017)
In brackets after ≈: the same amount, converted by molar mass. Several values for one entry are separate records, joined by “and”; a condition that tells them apart may be missing. Equal values may be shown once. Where a SMILES comes first, the peptide text is derived from it. [ ]: non-standard residue; d: D form. NMeL = CN[C@@H](CC(C)C)C(=O)O

Tests used:
[1] = test system: human breast adenocarcinoma cells (MDA-MB-435); format: cell-based; settings: 48 h
Description: (§1) Human hepatocellular cells (HepG2), human breast cancer cells (MCF-7), human breast adenocarcinoma cells (MDA-MB-435) and a human cervical carcinoma cell line (Hela) were selected as our in vitro cancerous cell models. The cells were all cultured in DMEM medium containing 10% fetal bovine serum, 1% penicillin-streptomycin and antifungal agent, incubated at 37 °C with 5% CO2 and 90% humidity. The cytotoxicity of Galaxamide and its analogs on the four cancerous cells was evaluated using the MTT method. […] After that, 20 µL MTT reagents were added to each well and incubated between 3–5 h according to the nature of cells; the color intensity of the cell culture at 570 nm was measured using a microplate spectrophotometer. Finally, the cell viability was calculated accordingly. Note: […]

[2] = test system: human hepatocellular cells (HepG2); format: cell-based; settings: 48 h
Description: as §1

[3] = test system: human cervical carcinoma cell line (Hela); format: cell-based; settings: 48 h
Description: as §1

[4] = test system: human breast cancer cells (MCF-7); format: cell-based; settings: 48 h
Description: as §1

[5] = test system: HepG2 cells; assay: Cell cycle analysis by propidium iodide staining, flow cytometry; format: cell-based, human; settings: 48 h, PI staining
Description: In particular, HepG2 cells were exposed to Galaxamide, Analog-4 and Analog-6 with concentrations of 0, 5, 10 and 15 µg/mL for 48 h. Generally, treatment with Galaxamide, Analog-4 and -6 all caused changes in the cell cycle of HepG2 cells, mainly in the sub-G1 stage, where a subdiploid peak was detected, indicating their apoptotic effects on HepG2 cells.
(§2) HepG2 cells were seeded in 6-well tissue culture plates at a concentration of 1 × 10^5 cells/well. Galaxamide and its analogs with a concentration of 0, 5, 10 and 15 µg/mL were added to the cell cultures and incubated for 48 h. After that, 5 µL Annexin V-fluorescein isothiocyanate (FITC) and 5 µL of PI were added for dual staining of the cells and analyzed by FACScan flow cytometry. Cell cycle and apoptotic cells were determined by counting the FITC-positive and PI-negative fractions.

[6] = test system: caspase-9; assay: Western blot, caspase-9 expression; format: cell-based, human; settings: HepG2, 15 µg/mL, 48 h
Description: (§3) There are two major pathways involved in cells apoptosis: the mitochondria-mediated intrinsic pathway and the death receptor-mediated extrinsic pathway. To elucidate the possible mechanism of the apoptotic effects of Analog-6, Western blot experiments were performed. HepG2 cells were treated with 0, 5, 10 and 15 µg/mL Analog-6 for 48 h, and then expression of cleaved caspase-3, caspase-9 and poly(ADP-ribose) polymerase (PARP) was quantified, results are shown in Figure 6.
(§4) Target proteins were first extracted using Radio-Immunoprecipitation Assay (RIPA) buffer and quantified by the Bradford method. Then, proteins were transferred to a polyvinylidene difluoride (PVDF) membrane, and the membrane was blocked with 5% non-fat milk for 1 h and incubated with a primary antibody (Cell Signaling Technology, Danvers, MA, USA, rabbit monoclonal antibody, 1:1000) at 4 °C overnight. After that, the membrane was washed two times with TBST buffer (Tris-buffered saline with 0.1% Tween-20) and incubated with a secondary antibody (goat-anti-rabbit horseradish peroxidase (HRP)-conjugated 1:15,000) for 1 h under room temperature. Finally, the membrane was washed three times with TBST, and the intensity of the specific immunoreactive bands was detected by enhanced chemiluminescence.

[7] = test system: poly(ADP-ribose) polymerase (PARP); assay: Western blot, cleaved PARP expression; format: cell-based, human; settings: HepG2, 15 µg/mL, 48 h
Description: as §3, §4

[8] = test system: HepG2 cells; assay: Annexin V-FITC / PI dual staining, flow cytometry (apoptosis); format: cell-based, human; settings: 48 h
Description: To further study the apoptotic mechanism of Analog-6, the Annexin V-fluorescein isothiocyanate (FITC) and propidium iodide (PI) dual staining method was used. Briefly, HepG2 cells were treated with 0, 5, 10 and 15 µg/mL Analog-6 for 48 h. Then, cells were washed several times with PBS and stained by dual staining of two fluorescent dyes, Annexin V-FITC and PI, and analyzed by flow cytometry. Results are shown in Figure 5, where HepG2 cells exposed to Galaxamide were used as the control. Note that Q1, Q2, Q3 and Q4 in the figure represent four quadrants of necrotic cells, late apoptotic cells, normal cells and early apoptotic cells, respectively.
as §2

[9] = test system: cleaved caspase-3; assay: Western blot, cleaved caspase-3 expression; format: cell-based, human; settings: HepG2, 15 µg/mL, 48 h
Description: as §3, §4

[10] = test system: HepG2 cells; assay: Hoechst 33342 staining, nuclear morphology; format: cell-based, human; settings: HepG2, increasing concentration up to 15 µg/mL, 48 h, fluorescence microscope
Description: We then investigated the effect of Galaxamide and Analog-6 on the cell morphology and nuclear integrity. HepG2 cells were treated with an increasing concentration of Analog-6 for 48 h and then stained by Hoechst 33342 (a DNA fluorescent dye). The effect of Galaxamide on HepG2 cells was used as a control. Noting that Hoechst 33342 is a DNA fluorescent dye, the fluorescently-stained DNA presents a blue color under the fluorescence microscope.
HepG2 cells were seeded in 6-well tissue culture plates at a concentration of 1 × 10^5 cells/well. Galaxamide and its analogs with a concentration of 0, 5, 10 and 15 µg/mL were added to the cell cultures and incubated for 48 h. After that, cells were fixed with 3.7% of paraformaldehyde for 10 min and washed three times with PBS. Then, Hoechst 33342 was added for cell staining, then visualized using a fluorescent microscope.

[11] = test system: human normal liver cell line L02; settings: cited from earlier work
Text: In our previous work, we synthesized several Galaxamide analogs and tested their cytotoxicity on a normal cell line (human normal liver cell line L02) and a broad range of cancerous cell lines in vitro.

[12] = test system: human renal cell carcinoma GRC-1; settings: in vitro, GRC-1 cell line; cited from earlier work
Text: (§5) In our initial work, a novel cyclic-pentapeptide named Galaxamide was isolated from a marine algae Galaxaura filamentosa collected from Xisha Island in the South China Sea. Galaxamide is a cyclic-pentapeptide composed of five L-leucines, including two N-methylated ones. N-methylated amino acid is an important component endowing the anticancer potential to the cyclopeptides.

[13] = test system: human hepatocellular carcinoma HepG2; settings: in vitro, HepG2 cell line; cited from earlier work
Text: as §5

| Compound | IC50 (µg/mL) in Different Cell Lines, MDA-MB-435 [1] [µg/mL] | IC50 (µg/mL) in Different Cell Lines, HepG2 [2] [µg/mL] | IC50 (µg/mL) in Different Cell Lines, Hela [3] [µg/mL] | IC50 (µg/mL) in Different Cell Lines, MCF-7 [4] [µg/mL] | G0/G1 cells ([5]; HepG2, 5 µg/mL) [%] | G2/M cells ([5]; HepG2, 5 µg/mL) [%] | S cells ([5]; HepG2, 5 µg/mL) [%] | Sub-G1 cells ([5]; HepG2, 5 µg/mL) [%] | G0/G1 cells ([5]; HepG2, 10 µg/mL) [%] | G2/M cells ([5]; HepG2, 10 µg/mL) [%] | S cells ([5]; HepG2, 10 µg/mL) [%] | Sub-G1 cells ([5]; HepG2, 10 µg/mL) [%] | G0/G1 cells ([5]; HepG2, 15 µg/mL) [%] | G2/M cells ([5]; HepG2, 15 µg/mL) [%] | S cells ([5]; HepG2, 15 µg/mL) [%] | Sub-G1 cells ([5]; HepG2, 15 µg/mL) | also measured |
| --- | --- | --- | --- | --- | --- | --- | --- | --- | --- | --- | --- | --- | --- | --- | --- | --- | --- |
| CC(C)C[C@@H]1NC(=O)[C@H](CC(C)C)N(C)C(=O)[C@H](CC(C)C)NC(=O)[C@@H](CC(C)C)N(C)C(=O)[C@H](Cc2ccccc2)NC1=O [Analog-3, Cyclo(Me-Leu-Leu-Phe-Me-D-Leu-Leu)] | 12.6 ± 0.29 (≈ 20.1 µM) | 7.71 ± 0.11 (≈ 12.3 µM) | 4.39 ± 0.26 (≈ 6.99 µM) | 18.16 ± 0.33 (≈ 28.9 µM) | – | – | – | – | – | – | – | – | – | – | – | – | – |
| CC(C)C[C@@H]1NC(=O)[C@H](CC(C)C)N(C)C(=O)[C@@H](CC(C)C)NC(=O)[C@H](CC(C)C)N(C)C(=O)[C@H](Cc2ccccc2)NC1=O [Analog-4, Cyclo(Me-Leu-Leu-Phe-Me-Leu-D-Leu)] | 7.67 ± 0.18 (≈ 12.2 µM) | 7.2 ± 0.15 (≈ 11.5 µM) | 4.2 ± 0.32 (≈ 6.69 µM) | 8.62 ± 0.26 (≈ 13.7 µM) | 70.5 | 9.33 | 20.2 | 1.78 | 64.2 | 12.9 | 22.9 | 7.1 | 67.6 | 5.91 | 26.5 | 35.5% | – |
| CC(C)C[C@@H]1NC(=O)[C@H](CC(C)C)N(C)C(=O)[C@H](CC(C)C)NC(=O)[C@H](CC(C)C)N(C)C(=O)[C@H](CC(C)C)NC1=O [Galaxamide] (cyclo(LL[NMeL]L[NMeL])) | – | – | – | – | 71.2 | 9.18 | 19.6 | 1.30 | 73.7 | 9.03 | 17.2 | 8.81 | 70.8 | 9.46 | 19.8 | 13.1% | IC50, cytotoxicity on normal L02 [11]: > 40 µg/mL; Q4, early apoptotic cells ([8]; HepG2, 5 µg/mL): 1.8%; Q4, early apoptotic cells ([8]; HepG2, 10 µg/mL): 10.6%; Q4, early apoptotic cells ([8]; HepG2, 15 µg/mL): 12.1%; nuclei morphology after Hoechst 33342 staining [10]: slight shrinking of nuclei; IC50, antiproliferative activity, GRC-1 [12]: 4.26 µg/mL (≈ 7.17 µM); IC50, antiproliferative activity, HepG2 [13]: 4.63 µg/mL (≈ 7.8 µM) |

Second part, led by results:

| IC50 (µg/mL) in Different Cell Lines, MDA-MB-435 [1] [µg/mL] | IC50 (µg/mL) in Different Cell Lines, HepG2 [2] [µg/mL] | IC50 (µg/mL) in Different Cell Lines, Hela [3] [µg/mL] | IC50 (µg/mL) in Different Cell Lines, MCF-7 [4] [µg/mL] | Compound | G0/G1 cells ([5]; HepG2, 5 µg/mL) [%] | G2/M cells ([5]; HepG2, 5 µg/mL) [%] | S cells ([5]; HepG2, 5 µg/mL) [%] | Sub-G1 cells ([5]; HepG2, 5 µg/mL) [%] | G0/G1 cells ([5]; HepG2, 10 µg/mL) [%] | G2/M cells ([5]; HepG2, 10 µg/mL) [%] | S cells ([5]; HepG2, 10 µg/mL) [%] | Sub-G1 cells ([5]; HepG2, 10 µg/mL) [%] | G0/G1 cells ([5]; HepG2, 15 µg/mL) [%] | G2/M cells ([5]; HepG2, 15 µg/mL) [%] | S cells ([5]; HepG2, 15 µg/mL) [%] | Sub-G1 cells ([5]; HepG2, 15 µg/mL) | also measured |
| --- | --- | --- | --- | --- | --- | --- | --- | --- | --- | --- | --- | --- | --- | --- | --- | --- | --- |
| 9.76 ± 0.18 (≈ 15.5 µM) | 5.85 ± 0.13 (≈ 9.32 µM) | 6.85 ± 0.26 (≈ 10.9 µM) | 13.03 ± 0.33 (≈ 20.8 µM) | CC(C)C[C@@H]1NC(=O)[C@H](CC(C)C)N(C)C(=O)[C@H](CC(C)C)NC(=O)[C@H](CC(C)C)N(C)C(=O)[C@H](Cc2ccccc2)NC1=O [Analog-1, Cyclo(Me-Leu-Leu-Phe-Me-Leu-Leu)] | – | – | – | – | – | – | – | – | – | – | – | – | – |
| 9.5 ± 0.32 (≈ 15.1 µM) | 4.56 ± 0.22 (≈ 7.26 µM) | 4.95 ± 0.18 (≈ 7.88 µM) | 9.64 ± 0.27 (≈ 15.4 µM) | CC(C)C[C@@H]1NC(=O)[C@H](CC(C)C)N(C)C(=O)[C@H](CC(C)C)NC(=O)[C@H](CC(C)C)N(C)C(=O)[C@@H](Cc2ccccc2)NC1=O [Analog-2, Cyclo(Me-Leu-Leu-D-Phe-Me-Leu-Leu)] | – | – | – | – | – | – | – | – | – | – | – | – | – |
| 6.76 ± 0.22 (≈ 10.8 µM) | 4.1 ± 0.20 (≈ 6.53 µM) | 3.42 ± 0.25 (≈ 5.45 µM) | 8.15 ± 0.18 (≈ 13 µM) | CC(C)C[C@@H]1NC(=O)[C@H](CC(C)C)N(C)C(=O)[C@H](Cc2ccccc2)NC(=O)[C@@H](CC(C)C)NC(=O)[C@H](CC(C)C)N(C)C1=O [Analog-6, Cyclo(Me-Leu-D-Leu-Phe-Me-Leu-Leu)] | 61.5 | 21.6 | 16.9 | 3.30 | 56.8 | 14.4 | 28.8 | 5.36 | 88.6 | 4.22 | 7.18 | 67.9% and 68% | increased fold of caspase-9 expression [6]: 3.3 fold; increased fold of PARP expression [7]: 6.8 fold; Q4, early apoptotic cells ([8]; HepG2, 5 µg/mL): 7.3%; Q4, early apoptotic cells ([8]; HepG2, 10 µg/mL): 16.9%; Q4, early apoptotic cells ([8]; HepG2, 15 µg/mL): 49.4% and ~50%; increased fold of cleaved caspase-3 expression [9]: 3.4 fold; nuclei morphology after Hoechst 33342 staining [10]: severely damaged |
| 20.43 ± 0.23 (≈ 32.5 µM) | 10.72 ± 0.32 (≈ 17.1 µM) | 7.4 ± 0.33 (≈ 11.8 µM) | 15.21 ± 0.29 (≈ 24.2 µM) | CC(C)C[C@@H]1NC(=O)[C@@H](CC(C)C)N(C)C(=O)[C@H](CC(C)C)NC(=O)[C@H](CC(C)C)N(C)C(=O)[C@H](Cc2ccccc2)NC1=O [Analog-5, Cyclo(Me-D-Leu-Leu-Phe-Me-Leu-Leu] | – | – | – | – | – | – | – | – | – | – | – | – | – |
